pIC50: −log10 of the molar value.
Experiments:
[1] = Three-day MTT cell growth inhibition assay, 1542CPTX; assay type: cell-based, human; conditions: human, 1542CPTX cells
1542CPTX = test: as above; assay type: cell-based, human; conditions: Homo sapiens, 72 h, 3 days
[2] = tested on: human PCa PC3-M cell orthotopic implants; set-up: method as in PMID 18339885; conditions: murine orthotopic model; cited from earlier work
1532CPTX = test: Three-day MTT cell growth inhibition assay, 1532CPTX; assay type: cell-based, human; conditions: Homo sapiens, 72 h, 3 days
[3] = as above; assay type: cell-based, human; conditions: human, 1532CPTX cells
[4] = tested on: matrix metalloproteinase 2 (MMP-2); set-up: method as in PMID 19638505; conditions: prospective human trial; cited from earlier work
MKK4 = MKK4 (Homo sapiens, UniProt P45985); set-up: method as in PMID 19638505; conditions: low nanomolar concentrations; cited from earlier work
[5] = Three-day MTT cell growth inhibition assay, 1532NPTX; assay type: cell-based, human; conditions: human, 1532NPTX cells
1532NPTX = test: as above; assay type: cell-based, human; conditions: Homo sapiens, 72 h, 3 days
[6] = Three-day MTT cell growth inhibition assay, 1542NPTX; assay type: cell-based, human; conditions: human, 1542NPTX cells
1542NPTX = test: as above; assay type: cell-based, human; conditions: Homo sapiens, 72 h, 3 days
[7] = tested on: protein phosphorylation in PC3-M and PC3 cells; test: KinomeView phospho-motif antibody screen; assay type: cell-based, human; conditions: 10 µM, 3 days, ± TGFβ
Protocol: The Kinoview™ and PhosphoScan™ assays were performed by Cell Signaling Technology Inc.
Supplementary Figure 10. Proteomic analysis of the effects of KBU2046 on the kinome. (a-c) Screening for effects on the kinome. PC3-M cells were pre-treated with 10 µM KBU2046, genistein or vehicle control for 3 days, then with ± TGFβ, as indicated. Resultant cell lysate, as well as lysate from tumors from mice treated with 150 mg/kg KBU2046 or control mice (from manuscript Figure 2a), were then probed with the KinomeView® panel of antibodies by Western blot. In instances where KBU2046 was inhibiting protein phosphorylation in cells and in tumors, a repeat experiment of PC3-M cells was conducted (Experiment #2). In addition to including PC3-M cells, as in Experiment #1, Experiment #2 expanded to examine effects on PC3 cells. (a) The identification of an 83 kDa band of interest (red arrows). This constitutes the only change […]
as in tumor tissue. […] (c) All […]
other Western blots of phospho-motif antibodies that were evaluated on initial screen. NI = tumor not informative; this denotes a tumor sample that yielded an abnormal coomassie blue staining pattern. Data from this sample was therefore not considered further.
(also on this page, place not known: cat #C32G12; tPE cat #2981; sRXY, FXs NI NI cat #2351; tXR cat #23C8D12; RXRXX(s/t) NI NI)
(1 picture or pasted object on this page, not shown here)

[8] = tested on: human prostate cells (PC3, PC3-M, 1532NPTX, 1542NPTX, 1532CPTX, 1542CPTX); set-up: method as in PMID 15833883; conditions: human PCa cells, nanomolar concentrations; cited from earlier work
PC3M = test: Three-day MTT cell growth inhibition assay, PC3M; assay type: cell-based, human; conditions: Homo sapiens, PC-3M, 72 h, PC3M
Description: (§1) Assays were in replicates of N = 3, and were repeated. […]
(§2) Values are the mean±SEM of a single experiment, in
(§3) replicates of N=4, repeated at least once (also N=4).
(§4) Supplementary Figure 1b. Synthetic round #2.

[9] = Three-day MTT cell growth inhibition assay, PC3M; assay type: cell-based, human; conditions: human; PC3M; 3 days
Description: as §1, §2, §3, §4

PC3 = test: Three-day MTT cell growth inhibition assay, PC3; assay type: cell-based, human; conditions: Homo sapiens, PC-3, 72 h, 3 days
[10] = Three-day MTT cell growth inhibition assay, PC3; assay type: cell-based, human; conditions: human, PC3 cells
PC3-M cells = test: Boyden chamber cell invasion assay, PC3-M cells; assay type: cell-based, human; conditions: PC3-M cells, 10 µM compound, 3 days
Protocol: Boyden chamber cell invasion assays were performed as previously described by us[30], using either denatured collagen (BD Biosciences) or type IV human collagen (BD Biosciences), with all experiments repeated, each in N = 4 replicates. In some experiments, as indicated, cells were transfected with an expression plasmid, using Lipofectamine 2000™ (Invitrogen), or with siRNA, using DharmaFect Duo (Thermo Scientific) and co-transfected with β-Galactosidase (Plasmid pCMV•SPORT-βgal; Life Technology). […]
For cell invasion, PC3-M cells […]
were treated with 10 µM compound for a total of 3 days, and cell invasion assays were run at the end of the 3 day period, in the presence of compound. Values are the mean±SEM of three separate experiments, each run in replicates of N=3. […]
assays were performed with PC3-M cells. Values are the mean±SEM of a single experiment, in replicates of N=4, repeated at least once (also N=4). […]

over 9000 human proteins = test: ProtoArray Human Protein Microarray binding assay; conditions: levels >/= 10 fold above background
Protocol: The ProtoArray® assay, using the Human Protein Microarray platform, was performed by Invitrogen. […]
followed by detection with FITC-streptavidin, and visualization by fluorescent microscopy (with equal exposure times). (d) Protein array hybridization. KBU2046-biotin was hybridized to ProtoArray® Human Protein Microarray’s at 0.5 and 10 µM with and without 10 fold excess free KBU2046. We first sought proteins that met the following criteria, and did so at both 0.5 and 10 µM concentrations of KBU2046-biotin (in the absence of free KBU2046): Z-Score greater than 2.5, Z-Factor greater than 0.5, CI P-value less than 0.05, negative control value <2,000 (relative fluorescence units; RFUs), and a signal/negative control signal of >10 and >5 for 10 µM and 0.5 µM conditions, respectively. This yielded 3 proteins, shown in table, for an initial hit rate of 0.03%. We then required free KBU2046 to inhibit binding by >75%. Of the two remaining candidates, we eliminated isovaleryl-CoA dehydrogenase (ICD). Its binding signal doubled on […]
suspected non-specific binding by the biotin-linker moiety. We deemed cysteine and glycine-rich protein 1 (CSRP1) our top priority protein, though its binding characteristics at 10 µM + free KBU2046 were similar to ICD, albeit not as extreme. We thus evaluated whether KBU2046- […]
There were two additional notable findings from protein array studies. […]

Sequence of MKK4 (P45985 whole entry): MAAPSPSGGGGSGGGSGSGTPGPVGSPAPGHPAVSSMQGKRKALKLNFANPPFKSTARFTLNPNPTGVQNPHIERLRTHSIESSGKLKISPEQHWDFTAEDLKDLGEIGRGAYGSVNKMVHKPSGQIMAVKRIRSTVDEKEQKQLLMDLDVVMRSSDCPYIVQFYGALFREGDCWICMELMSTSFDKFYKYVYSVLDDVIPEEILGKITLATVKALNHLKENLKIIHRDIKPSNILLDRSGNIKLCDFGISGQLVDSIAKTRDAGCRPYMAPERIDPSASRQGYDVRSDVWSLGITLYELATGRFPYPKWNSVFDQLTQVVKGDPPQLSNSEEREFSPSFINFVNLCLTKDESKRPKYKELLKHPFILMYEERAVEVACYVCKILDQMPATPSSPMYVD

Compound O=c1c(-c2ccc(O)cc2)coc2cc(O)cc(O)c12 [Genistein, 4′,5,7-trihydroxyisoflavone, reference compound] has a viability at 3 days, 50 µM [1] of 77.4%, an IC20 (1542CPTX) of 24.7 µM and a pIC50 (1542CPTX) of under 4.30. For the same compound, the metastasis [2] was “inhibit”, the IC20 (1532CPTX) was 30.8 µM and the pIC50 (1532CPTX) was under 4.30. For the same compound, the viability at 3 days, 50 µM [3] was 71.7%, the “MMP-2 expression in prostate tissue” value [4] was “downregulates” and the “inhibition of MKK4 kinase activity” value (MKK4) was “inhibited the kinase activity”. The viability at 3 days, 50 µM [5] was 66.9%, the IC20 (1532NPTX) was 23 µM and the pIC50 (1532NPTX) was under 4.30. The viability at 3 days, 50 µM [6] was 80.5%, the IC20 (1542NPTX) was 18.7 µM and the pIC50 (1542NPTX) was under 4.30. The “changes in protein phosphorylation” value [7] was “widespread changes in protein phosphorylation”, the cell invasion [8] was “inhibit human prostate cancer (PCa) cell invasion” and the IC20 (PC3M; concentration inhibiting cell growth by 20% after 3 days) was 17.5 µM. It also gave a pIC50 (PC3M; concentration inhibiting cell growth by 50% after 3 days) of 4.34, a viability at 3 days, 50 µM [9] of 46.2% and an IC20 (PC3) of 18 µM. It also gave a pIC50 (PC3) of 4.38 and a viability at 3 days, 50 µM [10] of 39.3%.
For O=c1c(-c2ccc(O)cc2)coc2cccc(O)c12 [compound 8], the anti-invasion activity (PC3-M cells) was “does not affect activity”.
For COc1ccc(-c2coc3cc(OC)cc(O)c3c2=O)cc1 [compound 16], the anti-invasion activity (PC3-M cells) was “retains anti-invasion activity”.
For CN[C@@H]1C[C@H]2O[C@@](C)([C@@H]1OC)n1c3ccccc3c3c4c(c5c6ccccc6n2c5c31)C(=O)NC4 [staurosporine], the “number of proteins bound” value (over 9000 human proteins) was 214.

— paper PMC6014988, “Precision therapeutic targeting of human cancer cell motility” (Nature Communications, 2018)
